Measurements reported in patent publication US20180346920A1, “Mutations Conferring Acetyl-Coa Carboxylase (ACC) Inhibiting Herbicide Tolerance in Sorghum” (Chromatin, Inc., priority 2017, published 2018).

Key:
[1] = test system: FOP herbicide resistant calli (FP-1 to FP-19); test: Resistant calli tested on higher herbicide concentrations in culture medium; format: cell-based, Sorghum bicolor
Procedure: The herbicide active ingredient molecule of ACC herbicide Assure II (Quizalofop-p-ethyl) was used for screening and selection process. For identifying the optimum concentration for screening, a kill curve experiment with concentrations ranging from 0.05 to 1.0 μM of a.i. molecules were tested. Three week old calli were cut into small pieces of 4-5 mm dia and 25 pieces were tested in three replications for each concentration. Concentrations used were: 0.05, 0.1, 0.2, 0.3, 0.4, 0.5 and 1 μM Quizalofop p-ethyl. As 50% of calli were killed at 0.2 uM concentration, the following selection criteria was followed for entire screening process. Selection process was started with 0.05 um and doubled the concentration for every 3 weeks and the calli surviving on 1.0 uM was considered as resistant calli.
For the chemical mutagenesis, two chemical mutagens Ethyl methanesulfonate (EMS) (0.25 and 0.5%) and Sodium azide (0.5 and 1.0 uM) were used. These mutagens at specified concentration were directly added into the culture media. The calli pieces were first cultured on the media containing the mutagens for 6 and 12 hrs and then transferred to the above mentioned selection procedure. A total of 16 experiments were conducted with varying amount of calli pieces. After 21 to 24 weeks of selection, the surviving calli were considered as herbicide resistant calli. […]

[2] = test system: sorghum (Inbred BTX430) calli; test: Kill curve experiment on sorghum calli; format: cell-based, Sorghum bicolor; conditions: 0.2 uM concentration; three week old BTX430 calli
Procedure: Callus production from the isolation of immature embryos (IEs) was accomplished by removing immature seeds from greenhouse grown sorghum (Inbred BTX430) panicles approximately 14 days after anthesis and surface sterilized in ethanol followed by a bleach solution and then washed in sterilized water. Immature embryos were isolated from seeds and transferred to medium with 20 IEs per plate. Cultures were grown for two weeks at (28° C.). All explants which produced somatic embryogenic calli were transferred to growth medium and cultured for an additional 4-6 days at 28° C. Explants were transferred to fresh media every three weeks until the entire callus turned into compact and friable green callus. Three weeks old freshly subcultured calli were used for the experiment
The herbicide active ingredient molecule of ACC herbicide Assure II (Quizalofop-p-ethyl) was used for screening and selection process. For identifying the optimum concentration for screening, a kill curve experiment with concentrations ranging from 0.05 to 1.0 μM of a.i. molecules were tested. Three week old calli were cut into small pieces of 4-5 mm dia and 25 pieces were tested in three replications for each concentration. Concentrations used were: 0.05, 0.1, 0.2, 0.3, 0.4, 0.5 and 1 μM Quizalofop p-ethyl. […]

Compound: CCOC(=O)[C@@H](C)Oc1ccc(Oc2cnc3cc(Cl)ccc3n2)cc1 [Quizalofop-p-ethyl]
- survival of FOP resistant calli ([1]; 100 μM, FP-7, FP-8, FP-9, FP-10, FP-13, FP-15): surviving
- growth of FOP herbicide resistant calli on tissue culture medium ([1]; FP-13, 1, 1.5, 2, 5, 10 μM): growing
- calli killed [2]: 50%
